Experimental data reported in ChEMBL document CHEMBL4028808, “Design and synthesis of selective CDK8/19 dual inhibitors: Discovery of 4,5-dihydrothieno[3',4':3,4]benzo[1,2-d]isothiazole derivatives” (Bioorg Med Chem, 2017).
≈ marks a conversion by molar mass, not a printed value.

What was measured:
[1] = Intrinsic clearance in human liver microsomes at 1 umol/l after 15 to 30 mins in presence of NADPH by LC-MS/MS analysis; assay type: ADME, microsome; settings: read-out: CLH
[2] = target: Cyclin-dependent kinase 8 (Homo sapiens, UniProt P49336); test: Inhibition of CDK8 in human SW480 cells assessed as decrease in STAT1 phosphorylation at Ser727 after 2 hrs by Western blot method
Cyclin-dependent kinase 8, sequence (P49336 whole entry): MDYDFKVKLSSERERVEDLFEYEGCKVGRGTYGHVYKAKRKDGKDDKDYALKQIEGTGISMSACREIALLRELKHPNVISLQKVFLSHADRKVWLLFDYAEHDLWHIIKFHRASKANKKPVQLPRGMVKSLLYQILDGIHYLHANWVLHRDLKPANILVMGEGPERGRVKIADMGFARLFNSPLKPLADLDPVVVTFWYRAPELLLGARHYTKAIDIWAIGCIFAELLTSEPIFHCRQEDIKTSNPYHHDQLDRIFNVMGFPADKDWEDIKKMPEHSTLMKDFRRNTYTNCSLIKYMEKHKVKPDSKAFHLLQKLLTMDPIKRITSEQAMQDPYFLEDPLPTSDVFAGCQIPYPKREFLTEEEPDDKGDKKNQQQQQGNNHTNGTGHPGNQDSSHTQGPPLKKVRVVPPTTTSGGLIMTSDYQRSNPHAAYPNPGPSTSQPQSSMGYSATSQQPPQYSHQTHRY

[3] = target: Cyclin-C/Cyclin-dependent kinase 19 (Homo sapiens, UniProt Q9BWU1); test: Inhibition of kinase tracer-236 binding to GST-tagged CDK19/CyclinC (unknown origin) after 60 mins by TR-FRET assay; assay type: protein-complex assay
Cyclin-C/Cyclin-dependent kinase 19, sequence (Q9BWU1 whole entry): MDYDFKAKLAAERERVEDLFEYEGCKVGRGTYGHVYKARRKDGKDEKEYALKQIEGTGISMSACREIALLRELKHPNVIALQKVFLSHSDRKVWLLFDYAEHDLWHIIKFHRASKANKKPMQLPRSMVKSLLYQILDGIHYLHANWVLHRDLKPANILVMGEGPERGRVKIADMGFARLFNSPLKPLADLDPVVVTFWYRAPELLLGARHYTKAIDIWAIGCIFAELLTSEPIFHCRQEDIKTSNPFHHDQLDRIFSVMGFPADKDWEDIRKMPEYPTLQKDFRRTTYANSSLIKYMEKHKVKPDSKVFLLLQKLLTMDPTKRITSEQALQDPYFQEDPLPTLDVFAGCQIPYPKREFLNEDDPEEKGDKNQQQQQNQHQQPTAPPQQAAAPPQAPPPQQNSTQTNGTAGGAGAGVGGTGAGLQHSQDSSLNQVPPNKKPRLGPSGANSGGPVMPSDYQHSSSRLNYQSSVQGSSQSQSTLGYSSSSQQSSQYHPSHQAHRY
Cyclin-C/Cyclin-dependent kinase 19, sequence (P24863 whole entry, further chain): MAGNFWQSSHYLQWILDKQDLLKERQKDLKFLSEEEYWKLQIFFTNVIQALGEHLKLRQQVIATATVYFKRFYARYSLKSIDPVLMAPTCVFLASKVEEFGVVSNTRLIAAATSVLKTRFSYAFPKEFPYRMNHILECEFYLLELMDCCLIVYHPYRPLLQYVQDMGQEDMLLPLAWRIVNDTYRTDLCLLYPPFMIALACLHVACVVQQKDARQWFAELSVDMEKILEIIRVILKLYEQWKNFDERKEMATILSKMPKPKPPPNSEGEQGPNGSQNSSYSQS

CDK8/Cyclin C [4] = target: T1, CDK8/Cyclin C (Homo sapiens, UniProt P49336); test: Inhibition of kinase tracer-236 binding to GST-tagged CDK8/CyclinC (unknown origin) after 60 mins by TR-FRET assay; assay type: protein-complex assay
T1 sequence (P49336 whole entry): as the sequence (P49336 whole entry) above
T1 sequence (P24863 whole entry, further chain): as the sequence (P24863 whole entry, further chain) above

[5] = Aqueous solubility of the compound in DMSO at pH 6.8 by HPLC method; assay type: physicochemical
CDK8/Cyclin C [6] = target: T1, CDK8/Cyclin C; test: Inhibition of full length recombinant human His-tagged CDK8/Cyclin C expressed in baculovirus expression system using Ulight-GS peptide as substrate measured after 30 mins by TR-FRET based LANCE assay

## Cc1cncc(Oc2sc(C(N)=O)c3c2-c2sncc2CC3)c1
[1]
  microsomal CLint at 1 µM: 188 µL/min/mg
[2]
  EC50: 28 nM
[3]
  IC50: 9.2 nM
CDK8/Cyclin C [4]
  IC50: 5.1 nM

## NC(=O)c1sc(Oc2cccnc2)c2c1CCc1cnsc1-2
[1]
  microsomal CLint at 1 µM: 55 µL/min/mg
[2]
  EC50: 3 nM
[3]
  IC50: 2.7 nM
CDK8/Cyclin C [4]
  IC50: 1.5 nM

## CSc1sc(C(N)=O)c2c1-c1[nH]ncc1CC2
[2]
  EC50: 1300 nM
[3]
  IC50: 3100 nM
CDK8/Cyclin C [4]
  IC50: 1700 nM

## CSc1sc(C(N)=O)c2c1-c1snnc1CC2
[2]
  EC50: 550 nM
[3]
  IC50: 130 nM
CDK8/Cyclin C [4]
  IC50: 60 nM

## NC(=O)c1sc(Oc2ccccc2)c2c1CCc1cnsc1-2
[1]
  microsomal CLint at 1 µM: 193 µL/min/mg
[2]
  EC50: 0.77 nM
[3]
  IC50: 0.55 nM
CDK8/Cyclin C [4]
  IC50: 0.34 nM

## Cc1ccncc1Oc1sc(C(N)=O)c2c1-c1sncc1CC2
[1]
  microsomal CLint at 1 µM: 65 µL/min/mg
[2]
  EC50: 16 nM
[3]
  IC50: 6.6 nM
CDK8/Cyclin C [4]
  IC50: 4.7 nM

## CSc1sc(C#N)c2c1-c1sncc1CC2
[2]
  EC50: 490 nM
[3]
  IC50: 46 nM
CDK8/Cyclin C [4]
  IC50: 23 nM

## NC(=O)c1ccc(Oc2sc(C(N)=O)c3c2-c2sncc2CC3)cn1
[5]
  solubility: 4.1 µg/mL (≈ 11 µM)
[1]
  microsomal CLint at 1 µM: 19 µL/min/mg
[2]
  EC50: 1.4 nM
[3]
  IC50: 0.97 nM
CDK8/Cyclin C [4]
  IC50: 0.93 nM

## COCCNC(=O)c1ccc(Oc2sc(C(N)=O)c3c2-c2sncc2CC3)c(C)n1
[5]
  solubility: 6.7 µg/mL (≈ 15.1 µM)
[1]
  microsomal CLint at 1 µM: 71 µL/min/mg
[2]
  EC50: 0.35 nM
[3]
  IC50: 1.3 nM
CDK8/Cyclin C [4]
  IC50: 1.4 nM

## OC[C@H](Nc1cncc(-c2ccc3[nH]ncc3c2)c1)c1ccccc1
CDK8/Cyclin C [6]
  IC50: 0.4 nM

## CSc1sc(C(N)=O)c2c1-c1c(cnn1C)CC2
[2]
  EC50: 25 nM
[3]
  IC50: 19 nM
CDK8/Cyclin C [4]
  IC50: 18 nM

## CSc1sc(C(=O)N(C)C)c2c1-c1sncc1CC2
[2]
  EC50: 1700 nM
[3]
  IC50: 120 nM
CDK8/Cyclin C [4]
  IC50: 68 nM

## NC(=O)c1[nH]cc(-c2ccncc2)c1Cl
CDK8/Cyclin C [6]
  IC50: 7 nM

## CSc1sc(C(N)=O)c2c1-c1oncc1CC2
[2]
  EC50: 200 nM
[3]
  IC50: 71 nM
CDK8/Cyclin C [4]
  IC50: 45 nM

## OC[C@H](Nc1cncc(-c2ccc(O)c(Cl)c2)n1)c1ccccc1
CDK8/Cyclin C [6]
  IC50: 0.2 nM

## CC(C)(O)CNC(=O)c1ccc(Oc2sc(C(N)=O)c3c2-c2sncc2CC3)cn1
[5]
  solubility: 56 µg/mL (≈ 126 µM)
[1]
  microsomal CLint at 1 µM: 21 µL/min/mg
[2]
  EC50: 7.4 nM
[3]
  IC50: 2.4 nM
CDK8/Cyclin C [4]
  IC50: 2.4 nM

## NC(=O)c1sc(Oc2ccccn2)c2c1CCc1cnsc1-2
[1]
  microsomal CLint at 1 µM: 101 µL/min/mg
[2]
  EC50: 66 nM
[3]
  IC50: 25 nM
CDK8/Cyclin C [4]
  IC50: 11 nM

## CSc1sc(C(=O)Nc2ccon2)c2c1-c1sncc1CC2
[2]
  EC50: 890 nM
[3]
  IC50: 15 nM
CDK8/Cyclin C [4]
  IC50: 12 nM

## CSc1sc(C(=O)O)c2c1-c1sncc1CC2
[2]
  EC50: > 10000 nM
[3]
  IC50: 12 nM
CDK8/Cyclin C [4]
  IC50: 9.5 nM

## CSc1sc(C(=O)Nc2ccsn2)c2c1-c1sncc1CC2
[2]
  EC50: 620 nM
[3]
  IC50: 93 nM
CDK8/Cyclin C [4]
  IC50: 66 nM

## CNC(=O)c1ccc(Oc2sc(C(N)=O)c3c2-c2sncc2CC3)cn1
[5]
  solubility: 11 µg/mL (≈ 28.5 µM)
[1]
  microsomal CLint at 1 µM: 23 µL/min/mg
[2]
  EC50: 2.6 nM
[3]
  IC50: 1 nM
CDK8/Cyclin C [4]
  IC50: 1.9 nM

## Cc1c(Oc2sc(C(N)=O)c3c2-c2sncc2CC3)ccc[n+]1[O-]
[2]
  EC50: 8.3 nM
[3]
  IC50: 9.3 nM
CDK8/Cyclin C [4]
  IC50: 4.4 nM

## CNc1ccc(Oc2sc(C(N)=O)c3c2-c2sncc2CC3)cn1
[5]
  solubility: 4 µg/mL (≈ 11.2 µM)
[1]
  microsomal CLint at 1 µM: 127 µL/min/mg
[2]
  EC50: 0.58 nM
[3]
  IC50: 0.36 nM
CDK8/Cyclin C [4]
  IC50: 0.59 nM

## C[S+]([O-])c1sc(C(N)=O)c2c1-c1sncc1CC2 (stereo not given)
[2]
  EC50: 70 nM
[3]
  IC50: 150 nM
CDK8/Cyclin C [4]
  IC50: 88 nM

## CSc1sc(C(=O)Nc2ccccc2)c2c1-c1sncc1CC2
[2]
  EC50: > 10000 nM
[3]
  IC50: 700 nM
CDK8/Cyclin C [4]
  IC50: 540 nM

## CS(=O)(=O)c1sc(C(N)=O)c2c1-c1sncc1CC2
[2]
  EC50: 220 nM
[3]
  IC50: 110 nM
CDK8/Cyclin C [4]
  IC50: 63 nM

## Cc1ncccc1Oc1sc(C(N)=O)c2c1-c1sncc1CC2
[1]
  microsomal CLint at 1 µM: 86 µL/min/mg
[2]
  EC50: 2 nM
[3]
  IC50: 0.77 nM
CDK8/Cyclin C [4]
  IC50: 0.47 nM

## CSc1sc(C(=O)Nc2ccn(C)n2)c2c1-c1sncc1CC2
[2]
  EC50: 1400 nM
[3]
  IC50: 65 nM
CDK8/Cyclin C [4]
  IC50: 22 nM

## Cc1ccc(Oc2sc(C(N)=O)c3c2-c2sncc2CC3)cn1
[5]
  solubility: 23 µg/mL (≈ 67 µM)
[1]
  microsomal CLint at 1 µM: 75 µL/min/mg
[2]
  EC50: 3 nM
[3]
  IC50: 1.3 nM
CDK8/Cyclin C [4]
  IC50: 0.99 nM

## CNC(=O)c1sc(SC)c2c1CCc1cnsc1-2
[2]
  EC50: 140 nM
[3]
  IC50: 22 nM
CDK8/Cyclin C [4]
  IC50: 9.3 nM

## NC(=O)c1sc(Oc2ccc(N)nc2)c2c1CCc1cnsc1-2
[5]
  solubility: 4.5 µg/mL (≈ 13.1 µM)
[1]
  microsomal CLint at 1 µM: 30 µL/min/mg
[2]
  EC50: 2.3 nM
[3]
  IC50: 1.1 nM
CDK8/Cyclin C [4]
  IC50: 0.6 nM

## CSc1sc(C(=O)Nc2ccccn2)c2c1-c1sncc1CC2
[2]
  EC50: 2800 nM
[3]
  IC50: 400 nM
CDK8/Cyclin C [4]
  IC50: 180 nM

## CCOCCNC(=O)c1ccc(Oc2sc(C(N)=O)c3c2-c2sncc2CC3)cn1
[5]
  solubility: 15 µg/mL (≈ 33.7 µM)
[1]
  microsomal CLint at 1 µM: 73 µL/min/mg
[2]
  EC50: 1.5 nM
[3]
  IC50: 1.9 nM
CDK8/Cyclin C [4]
  IC50: 1.1 nM

## CC(=O)Nc1ccc(Oc2sc(C(N)=O)c3c2-c2sncc2CC3)cn1
[5]
  solubility: 0.72 µg/mL (≈ 1.86 µM)
[1]
  microsomal CLint at 1 µM: 61 µL/min/mg
[2]
  EC50: 0.4 nM
[3]
  IC50: 0.57 nM
CDK8/Cyclin C [4]
  IC50: 0.57 nM

## CN(C)C(=O)c1ccc(Oc2sc(C(N)=O)c3c2-c2sncc2CC3)cn1
[5]
  solubility: 65 µg/mL (≈ 162 µM)
[1]
  microsomal CLint at 1 µM: 36 µL/min/mg
[2]
  EC50: 21 nM
[3]
  IC50: 21 nM
CDK8/Cyclin C [4]
  IC50: 23 nM

## COc1sc(C(N)=O)c2c1-c1sncc1CC2
[2]
  EC50: 9.1 nM
[3]
  IC50: 2.8 nM
CDK8/Cyclin C [4]
  IC50: 2.3 nM

## CSc1sc(C(N)=O)c2c1-c1nn(C)cc1CC2
[2]
  EC50: > 10000 nM
CDK8/Cyclin C [4]
  IC50: > 10000 nM
